Experimental data taken from patent US20260256792A1, “TREATMENT OF CHRONIC SPONTANEOUS URTICARIA BY ADMINISTERING (R)-2-[3-[4-AMINO-3-(2-FLUORO-4-PHENOXY-PHENYL)PYRAZOLO[3,4-D]PYRIMIDIN-1-YL]PIPERIDINE-1-CARBONYL]-4-METHYL-4-[4-(OXETAN-3-YL)PIPERAZIN-1-YL]PENT-2-ENENITRILE” (priority 2023, published 2026).

Tested on: moderate-to-severe chronic spontaneous urticaria (CSU)
Test: Phase 2 CSU study: itch severity score over 7 days (ISS7)
Format: in vivo, human
Conditions: Omalizumab-Naïve
Description: The study comprises a 12 week, randomized, double-blind, placebo-controlled, multi-center, dose-ranging efficacy and safety phase, followed by a 40 week open label extension (OLE) phase (see FIG. 1). The study consists of three phases and an optional OLE phase. […] Clinically, CSU is characterized by the spontaneous and recurrent appearance of pruritic hives. The proposed primary endpoints were the UAS7 at Week 12 in EU and EU reference countries and the ISS7 in the US. Regardless of where a participant was from, all assessments were the same. The UAS7 score is a composite score containing both the HSS7 and the ISS7. This allowed a global assessment of the two key components of urticaria: hives and itch. […] The UAS is a validated PRO measure. […] The daily UAS scores range from 0 to 6 point/day. […] Patients were to complete the UAS using the e-diary. […] The following secondary endpoints were to be analyzed using the same approach as for the primary endpoint: • Change from baseline in UAS7 at Week 4 • Change from baseline in UAS7 at Week 12 (for US and US reference countries) • Change from baseline in ISS7 at Week 12 (except US and US reference countries) • Change from baseline in HSS7 at Week 12

## CC(C)(C=C(C#N)C(=O)N1CCC[C@@H](n2nc(-c3ccc(Oc4ccccc4)cc3F)c3c(N)ncnc32)C1)N1CCN(C2COC2)CC1 [rilzabrutinib, (R)-2-[3-[4-amino-3-(2-fluoro-4-phenoxy-phenyl)pyrazolo[3,4-d]pyrimidin-1-yl]piperidine-1-carbonyl]-4-methyl-4-[4-(oxetan-3-yl)piperazin-1-yl]pent-2-enenitrile]
Outlier removed, 400 mg TID, Week 1
  ISS7 Post-baseline Mean (SD): 9.79 (5.47)
Outlier removed, 400 mg TID, Week 2
  ISS7 Post-baseline Mean (SD): 8.59 (5.80)
Outlier removed, 400 mg TID, Week 3
  ISS7 Post-baseline Mean (SD): 8.18 (5.41)
Outlier removed, 400 mg TID, Week 4
  ISS7 Post-baseline Mean (SD): 7.79 (5.03)
Outlier removed, 400 mg TID, Week 5
  ISS7 Post-baseline Mean (SD): 6.92 (5.87)
Outlier removed, 400 mg TID, Week 6
  ISS7 Post-baseline Mean (SD): 7.32 (6.05)
Outlier removed, 400 mg TID, Week 7
  ISS7 Post-baseline Mean (SD): 7.14 (5.35)
Outlier removed, 400 mg TID, Week 8
  ISS7 Post-baseline Mean (SD): 7.24 (5.51)
Outlier removed, 400 mg TID, Week 9
  ISS7 Post-baseline Mean (SD): 6.68 (5.31)
Outlier removed, 400 mg TID, Week 10
  ISS7 Post-baseline Mean (SD): 6.75 (5.25)
Outlier removed, 400 mg TID, Week 11
  ISS7 Post-baseline Mean (SD): 6.99 (5.53)
Outlier removed, 400 mg TID, Week 12
  ISS7 Post-baseline Mean (SD): 5.77 (5.26)
400 mg BID, Week 1
  ISS7 % Change difference for rilzabrutinib vs. placebo LS Mean (95% CI): −23.80 (−38.99, −8.60) %
  ISS7 % Change from baseline LS Mean (SE): −33.92 (5.73) %
  ISS7 Change difference for rilzabrutinib vs. placebo LS Mean (95% CI): −3.14
  ISS7 Change from baseline LS Mean (SE): −5.06 (0.83)
400 mg BID, Week 2
  ISS7 % Change difference for rilzabrutinib vs. placebo LS Mean (95% CI): −17.28 (−32.06, −2.50) %
  ISS7 % Change from baseline LS Mean (SE): −35.92 (5.58) %
  ISS7 Change difference for rilzabrutinib vs. placebo LS Mean (95% CI): −2.26
  ISS7 Change from baseline LS Mean (SE): −5.49 (0.83)
  ISS7 Post-baseline Mean (SD): 10.32 (5.64)
400 mg BID, Week 3
  ISS7 % Change difference for rilzabrutinib vs. placebo LS Mean (95% CI): −20.30 (−35.19, −5.41) %
  ISS7 % Change from baseline LS Mean (SE): −40.91 (5.60) %
  ISS7 Change difference for rilzabrutinib vs. placebo LS Mean (95% CI): −2.82
  ISS7 Change from baseline LS Mean (SE): −6.52 (0.87)
  ISS7 Post-baseline Mean (SD): 9.16 (6.09)
400 mg BID, Week 4
  ISS7 % Change difference for rilzabrutinib vs. placebo LS Mean (95% CI): −20.53 (−36.37, −4.69) %
  ISS7 % Change from baseline LS Mean (SE): −43.47 (5.96) %
  ISS7 Change difference for rilzabrutinib vs. placebo LS Mean (95% CI): −2.86
  ISS7 Change from baseline LS Mean (SE): −6.96 (0.93)
  ISS7 Post-baseline Mean (SD): 8.32 (6.02)
400 mg BID, Week 5
  ISS7 Post-baseline Mean (SD): 8.88 (6.81)
400 mg BID, Week 6
  ISS7 Post-baseline Mean (SD): 8.85 (6.40)
400 mg BID, Week 7
  ISS7 Post-baseline Mean (SD): 8.21 (6.16)
400 mg BID, Week 8
  ISS7 Post-baseline Mean (SD): 7.33 (6.55)
400 mg BID, Week 9
  ISS7 Post-baseline Mean (SD): 7.63 (7.11)
400 mg BID, Week 10
  ISS7 Post-baseline Mean (SD): 8.17 (7.29)
400 mg BID, Week 11
  ISS7 Post-baseline Mean (SD): 7.93 (6.94)
400 mg BID, Week 12
  ISS7 % Change difference for rilzabrutinib vs. placebo LS Mean (95% CI): −14.10 (−32.26, 4.06) %
  ISS7 % Change from baseline LS Mean (SE): −48.31 (6.75) %
  ISS7 Change difference for rilzabrutinib vs. placebo LS Mean (95% CI): −1.96
  ISS7 Change from baseline LS Mean (SE): −7.73 (1.06)
  ISS7 Post-baseline Mean (SD): 8.09 (6.95)
400 mg QPM, Week 1
  ISS7 % Change difference for rilzabrutinib vs. placebo LS Mean (95% CI): −8.25 (−23.30, 6.80) %
  ISS7 % Change from baseline LS Mean (SE): −18.38 (5.55) %
  ISS7 Change difference for rilzabrutinib vs. placebo LS Mean (95% CI): −1.33
  ISS7 Change from baseline LS Mean (SE): −3.25 (0.80)
  ISS7 Post-baseline Mean (SD): 13.08 (4.52)
400 mg QPM, Week 2
  ISS7 % Change difference for rilzabrutinib vs. placebo LS Mean (95% CI): −5.32 (−19.96, 9.32) %
  ISS7 % Change from baseline LS Mean (SE): −23.96 (5.37) %
  ISS7 Change difference for rilzabrutinib vs. placebo LS Mean (95% CI): −0.76
  ISS7 Change from baseline LS Mean (SE): −3.99 (0.80)
400 mg QPM, Week 3
  ISS7 % Change difference for rilzabrutinib vs. placebo LS Mean (95% CI): −8.38 (−23.14, 6.38) %
  ISS7 % Change from baseline LS Mean (SE): −28.99 (5.42) %
  ISS7 Change difference for rilzabrutinib vs. placebo LS Mean (95% CI): −1.12
  ISS7 Change from baseline LS Mean (SE): −4.82 (0.85)
  ISS7 Post-baseline Mean (SD): 11.60 (4.68)
400 mg QPM, Week 4
  ISS7 % Change difference for rilzabrutinib vs. placebo LS Mean (95% CI): −7.02 (−22.76, 8.71) %
  ISS7 % Change from baseline LS Mean (SE): −29.97 (5.75) %
  ISS7 Change difference for rilzabrutinib vs. placebo LS Mean (95% CI): −0.93
  ISS7 Change from baseline LS Mean (SE): −5.03 (0.89)
  ISS7 Post-baseline Mean (SD): 11.39 (4.79)
400 mg QPM, Week 5
  ISS7 Post-baseline Mean (SD): 11.00 (4.68)
400 mg QPM, Week 6
  ISS7 Post-baseline Mean (SD): 10.27 (5.26)
400 mg QPM, Week 7
  ISS7 Post-baseline Mean (SD): 10.68 (5.34)
400 mg QPM, Week 8
  ISS7 Post-baseline Mean (SD): 10.72 (5.26)
400 mg QPM, Week 10
  ISS7 Post-baseline Mean (SD): 10.43 (5.30)
400 mg QPM, Week 11
  ISS7 Post-baseline Mean (SD): 11.03 (5.55)
400 mg QPM, Week 12
  ISS7 % Change difference for rilzabrutinib vs. placebo LS Mean (95% CI): −0.54 (−18.55, 17.47) %
  ISS7 % Change from baseline LS Mean (SE): −34.75 (6.64) %
  ISS7 Change difference for rilzabrutinib vs. placebo LS Mean (95% CI): 0.58
  ISS7 Change from baseline LS Mean (SE): −5.19 (1.02)
400 mg TID, Week 1
  ISS7 % Change from baseline LS Mean (SE): −37.45 (5.78) %
  ISS7 Change difference for rilzabrutinib vs. placebo LS Mean (95% CI): −4.21
  ISS7 Change from baseline LS Mean (SE): −6.13 (0.82)
  ISS7 Post-baseline Mean (SD): 9.51 (5.64)
400 mg TID, Week 2
  ISS7 % Change difference for rilzabrutinib vs. placebo LS Mean (95% CI): −27.63 (−42.70, −12.56) %
  ISS7 % Change from baseline LS Mean (SE): −46.27 (5.61) %
  ISS7 Change difference for rilzabrutinib vs. placebo LS Mean (95% CI): −4.14
  ISS7 Change from baseline LS Mean (SE): −7.37 (0.82)
  ISS7 Post-baseline Mean (SD): 8.40 (5.82)
400 mg TID, Week 3
  ISS7 % Change difference for rilzabrutinib vs. placebo LS Mean (95% CI): −27.20 (−42.33, −12.08) %
  ISS7 % Change from baseline LS Mean (SE): −47.81 (5.64) %
  ISS7 Change difference for rilzabrutinib vs. placebo LS Mean (95% CI): −3.58
  ISS7 Change from baseline LS Mean (SE): −7.29 (0.87)
  ISS7 Post-baseline Mean (SD): 8.34 (5.42)
400 mg TID, Week 4
  ISS7 % Change difference for rilzabrutinib vs. placebo LS Mean (95% CI): −24.55 (−40.74, −8.36) %
  ISS7 % Change from baseline LS Mean (SE): −47.50 (6.02) %
  ISS7 Change difference for rilzabrutinib vs. placebo LS Mean (95% CI): −3.23
  ISS7 Change from baseline LS Mean (SE): −7.33 (0.92)
  ISS7 Post-baseline Mean (SD): 7.79 (5.03)
